Paper PMC8370991, “Structural basis for the inhibition of HTLV-1 integration inferred from cryo-EM deltaretroviral intasome structures” (Nature Communications, 2021)
Like-named read-outs stand apart in the source and are kept apart here.

Legend:
recombinant HTLV-1 IN = molecular target: T1, recombinant HTLV-1 IN (Human T-cell leukemia virus 1, UniProt P03362); test: In vitro integration strand transfer assay with HTLV-1 IN; format: biochemical; conditions: for HTLV-1 IN strand transfer activity (No drug = 100): INSTI at 634 nM
T1 construct: made in house
Protocol: We used in vitro strand transfer assays to screen this small molecule library for its ability to inhibit recombinant HTLV-1 IN. The enzyme was incubated with an oligonucleotide vDNA donor mimic in the presence or absence of INSTIs and was allowed to react with a supercoiled plasmid mimicking target DNA. During the screening, the concentration of each compound was adjusted to 634 nM to provide optimal resolution of efficacy between well- and under-performing compounds.
The donor vDNA that mimics the 3′-processed LTR of HTLV-1 or STLV-1 DNA was preassembled by annealing the U5_S20Q_UP and U5_S20Q_B or MarB43_U5_S30UP or MarB43_U5_S30B oligonucleotides, respectively (Supplementary Table 4) in 100 mM Tris pH 7.4, 400 mM NaCl. For HTLV-1 IN, strand transfer reactions were conducted in a solution of 24.3 mM PIPES pH 6.0, 138.4 mM NaCl, 16.6 mM MgCl2, 5.8 μM ZnCl2, 12.7 mM DTT, 0.53 μM donor DNA and 4 μg of HTLV-1 IN[9],[39]. In brief, the reaction was incubated at RT for 15 min in the presence of an INSTI or dimethyl sulfoxide (DMSO) control and the reaction was started by the addition of 300 ng of pGEM-9Zf(-) supercoiled plasmid DNA. The reaction was incubated for 1 h at 37 °C and stopped by adding 0.5% SDS and 25 mM ethylenediaminetetraacetic acid (EDTA), pH 8.0.
Proteins were degraded by incubation with 30 μg of proteinase K (Roche) at 37 °C for 1 h. DNA was precipitated at −20 °C overnight in the presence of ethanol supplemented with 20 μg of glycogen and then resuspended in 1.5× agarose loading dye. The DNA products were separated by electrophoresis through 1.5% agarose gel and stained with ethidium bromide and imaged using the BioRad GelDox XR + imager. The data were analysed and the IC50 calculated as previously described. In brief, the DNA band that corresponds to the concerted integration product was quantified by densitometry in ImageLab 4.1 (Bio-Rad). All experiments were done in triplicate. Quantified data points were fitted to dose–response curves in Prism 9. The cumulative standard deviation for each drug was calculated as an average of the upper limit and lower limit values: Lowerlimit=IC50/10^logSE(IC50) Upperlimit=IC50×10^logSE(IC50)

HIV-1 = HIV-1 infection model, read-out: HIV-1 EC50 ± stdev, cited from earlier work
HTLV-1 = test: Alu-qPCR of integrated provirus in HTLV-1 infected Jurkat cells; format: cell-based; conditions: normalized to GAPDH
Protocol: The HTLV-1 cell-to-cell infection was performed as previously described; Jurkat T cells were counted and diluted in complete RPMI to a final concentration of 0.25 × 10^6 cells/ml and pre-treated with INSTI drugs (final concentration ranging from 0.2 pM to 2 μM) or DMSO as a control for 24 h. MT-2 cells were resuspended in RPMI at a concentration of 2 × 10^6 cells/ml and subjected to a nonlethal γ-radiation dose of 400 Gy. Cells were resuspended at a concentration of 2 × 10^6 cells/ml in serum-free RPMI supplemented with the corresponding INSTI drug. Co-culture of 0.5 × 10^6 for each cell line was carried out for 16 h, after which cells were washed in PBS and resuspended in 1 ml of depletion buffer (PBS, 0.1% FBS and 2 mM EGTA). MT-2 cells were depleted from the culture by means of anti-CD25 magnetic beads (DynabeadsTM CD25, Thermo Fisher). Depletion efficiency was confirmed via flow cytometry as described previously. Jurkat cells were cultured for 2 weeks in complete RPMI supplemented with the drugs and genomic DNA was extracted (DNeasy kit, Qiagen) and stored at −20 °C for subsequent analysis. All the experiments were done in triplicate.
The PVL was measured as previously described[9],[53],[54]. Jurkat genomic DNA was quantified and diluted to a concentration of 5 ng/μL. Real-time qPCR analysis were conducted on 20 ng of gDNA to measure the level of HTLV-1 tax and gapdh genes (Supplementary Table 5). For the standard curve, the gDNA from an HTLV-1 naturally infected T-cell clone (clone 11.50, courtesy of professor Charles Bangham), which has one copy of tax and two of gapdh, was used. The integrated provirus copy number was calculated as follows: (tax copy numbers)/(2×gapdh copy number)[53], and normalised to the DMSO-treated control which was set to 100%. The PVL data were fitted to a dose–response curve in Prism 7 and the EC50 was calculated. Alu-PCR was performed as previously described in ref. [55]. In brief, the first PCR reaction was done with Phusion polymerase starting from 80 ng of gDNA using the ALU-specific primers (Alu-F/Gag-R). The nested PCR was run diluting the amplificated product 1:50. The reaction was done as a qPCR using Gag-specific primers (Gag-R/Gag-F) and the Luna SYBR dye reaction mix (New England Biolabs). The integrated provirus copy numbers were normalised to GAPDH and Jurkat cells treated with DMSO and infected with HTLV-1 were set to 100%. Experiments were done in triplicate. […]
Supplementary Figure 6 | Integrated provirus was quantified by Alu-qPCR.
Values were normalized to GAPDH. Uninfected represents uninfected Jurkat cells, acting as negative control. Condition without any drug present (DMSO) was set as 100%. Mean values and standard deviations are shown for n = three biologically independent experiments. P-values were calculated with respect to the DMSO control using the unpaired t-test with Welch’s correction in Prism 9. P-values are two-sided.

[1] = Replicate 1, read-out: HTLV-1 IN strand transfer IC50
[2] = Replicate 2, read-out: HTLV-1 IN strand transfer IC50
[3] = Replicate 3, read-out: HTLV-1 IN strand transfer IC50
[4] = integrase strand-transfer drug titration, n = 3, read-out: HTLV-1 IC50 ± stdev

T1 sequence (P03362 1168-1462): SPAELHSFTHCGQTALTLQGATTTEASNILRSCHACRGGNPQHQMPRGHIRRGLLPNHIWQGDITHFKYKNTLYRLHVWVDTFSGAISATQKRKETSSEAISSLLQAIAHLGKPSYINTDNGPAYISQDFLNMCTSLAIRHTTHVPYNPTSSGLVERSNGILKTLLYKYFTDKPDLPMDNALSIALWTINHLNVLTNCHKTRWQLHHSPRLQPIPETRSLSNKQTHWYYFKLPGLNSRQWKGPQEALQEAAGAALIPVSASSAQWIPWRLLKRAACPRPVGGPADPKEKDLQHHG

Structure (SMILES): Nc1c(C(=O)NCc2ccc(F)cc2F)c(=O)n(O)c2ncccc12 [XZ384, 4-amino-N-(2,4-difluorobenzyl)-1-hydroxy-2-oxo-1,2-dihydro-1,8-naphthyridine-3-carboxamide]
- HTLV-1 IN strand transfer activity (No drug = 100) (recombinant HTLV-1 IN; Replicate 1): 12.8154%
- HTLV-1 IN strand transfer activity (No drug = 100) (recombinant HTLV-1 IN; Replicate 2): 24.1903%
- HTLV-1 IN strand transfer activity (No drug = 100) (recombinant HTLV-1 IN; Replicate 3): 23.5902%
- IC50 (recombinant HTLV-1 IN; [1]): 142 nM
- IC50 (recombinant HTLV-1 IN; [2]): 268 nM
- IC50 (recombinant HTLV-1 IN; [3]): 121 nM
- IC50 (recombinant HTLV-1 IN; [4]): 210 ± 34 nM
- EC50 (HIV-1; supplementary ref 1): 1.1 ± 0.7 nM
- Integrated provirus by Alu-qPCR (DMSO = 100%) (HTLV-1; Replicate 1): 4.1902%
- Integrated provirus by Alu-qPCR (DMSO = 100%) (HTLV-1; Replicate 2): 0.144%
- Integrated provirus by Alu-qPCR (DMSO = 100%) (HTLV-1; Replicate 3): 1.628%

Structure (SMILES): COC(=O)CCc1cnc2c(c1)c(N)c(C(=O)NCc1ccc(F)cc1F)c(=O)n2O [XZ434, methyl 3-(5-amino-6-((2,4-difluorobenzyl)carbamoyl)-8-hydroxy-7-oxo-7,8-dihydro-1,8-naphthyridin-3-yl)propanoate]
- HTLV-1 IN strand transfer activity (No drug = 100) (recombinant HTLV-1 IN; Replicate 1): 20.5794%
- HTLV-1 IN strand transfer activity (No drug = 100) (recombinant HTLV-1 IN; Replicate 2): 19.7322%
- HTLV-1 IN strand transfer activity (No drug = 100) (recombinant HTLV-1 IN; Replicate 3): 15.311%
- IC50 (recombinant HTLV-1 IN; [1]): 174 nM
- IC50 (recombinant HTLV-1 IN; [2]): 217 nM
- IC50 (recombinant HTLV-1 IN; [3]): 231 nM
- IC50 (recombinant HTLV-1 IN; [4]): 204 ± 34.1 nM
- EC50 (HIV-1; supplementary ref 14): 0.67 ± 0.15 nM
- Integrated provirus by Alu-qPCR (DMSO = 100%) (HTLV-1; Replicate 1): 0.3355%
- Integrated provirus by Alu-qPCR (DMSO = 100%) (HTLV-1; Replicate 2): 0.8375%
- Integrated provirus by Alu-qPCR (DMSO = 100%) (HTLV-1; Replicate 3): 1.324e-5%
